Where two headings read alike, the source gives them in different places.
Key:
guinea pig lung slices = experiment: Inhibition of histamine release from guinea pig lung slices; type: cell-based; settings: Cavia porcellus; passively sensitized lung slices, 5 minutes preincubation; read-out: concentration at which 50% of antigen-induced histamine release was inhibited (I50)
Description: 1H-benz(f)azepine-2,5-dione was also found to inhibit histamine-release from guinea pig lung slices over a wide concentration range. Immunologically mediated secretion of histamine from guinea pig lung slices is mediated through the IgG1 class of antibodies, as opposed to the IgE-class of antibodies which control secretion from rat mast cells. The affect of the compound of the present invention on antigen-induced release of histamine from passively sensitized guinea pig lung slices was determined according to the procedure of Khandwala et al., Int. Archs. Allergy Appl. Immunol. 59:34-44(1979). A brief description of the method follows:
Guinea pig lung slices were passively sensitized in vitro with guinea pig anti-ovalbumin serum. […] Both the histamine released into the incubation media and the residual histamine extracted from the lung slices were measured fluorometrically. Both spontaneous and antigen-induced histamine releases were expressed as % of total extractable histamine in the lung slices. Net antigen-induced histamine release (AIR) was obtained by subtracting the spontaneous release from that in the presence of the antigen. The effect of the test compound on both SR and AIR was determined following 5 minutes preincubation of sensitized lung slices with the test compound. The concentration of the test compound required for 50% inhibition of AIR (I50) was determined.

[1] = tested on: rat peritoneal mast cells; experiment: Inhibition of histamine release from rat mast cells; type: cell-based; settings: for IC50: Rattus norvegicus, Mast cell, read-out: I50 of antigen-induced secretion of histamine
Experimental: The compound of the present invention was also tested for inhibition of histamine release from rat mast cells by the method of Khandwala et al., Int. Archs Allergy appl. Immun. 69:159-168 (1982). Rat peritoneal mast cells contain receptors for IgE antibodies as well as granules which contain preformed mediators of anaphylaxis. Immunologically stimulated secretion of histamine from these cells has long been used as a model for testing antiallergic drugs. The standard asthma prophylactic drug disodium cromoglycate is a potent inhibitor in this model. A brief summary of the method is as follows:
Freshly harvested rat peritoneal mast cells were passively sensitized in vitro with rat anti-ovalbumin serum. Spontaneous histamine release or SR (in the absence of antigen) and anaphylactically-induced histamine release or AIR (in the presence of antigen) were measured after 15 minutes of incubation. Both the histamine released into the incubation medium and the residual histamine extracted from rat mast cells were measured fluorometrically.

[2] = target: T1, binding of IgE to mast cells (cellular receptor) (Rattus norvegicus, UniProt P12371); experiment: Binding of IgE to mast cells (125I-labelled rat IgE, mixed peritoneal cells)
T1 construct: endogenous in cells; host or cells: mixed peritoneal cells (containing mast cells)
T1 sequence (P12371 24-245): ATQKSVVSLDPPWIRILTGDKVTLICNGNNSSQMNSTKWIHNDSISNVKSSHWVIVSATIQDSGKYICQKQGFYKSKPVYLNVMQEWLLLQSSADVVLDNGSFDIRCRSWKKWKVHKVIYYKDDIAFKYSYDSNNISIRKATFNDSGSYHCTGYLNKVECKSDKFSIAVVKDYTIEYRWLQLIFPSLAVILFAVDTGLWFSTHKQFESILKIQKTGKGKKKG
T1 sequence (P13386 1-243 partner): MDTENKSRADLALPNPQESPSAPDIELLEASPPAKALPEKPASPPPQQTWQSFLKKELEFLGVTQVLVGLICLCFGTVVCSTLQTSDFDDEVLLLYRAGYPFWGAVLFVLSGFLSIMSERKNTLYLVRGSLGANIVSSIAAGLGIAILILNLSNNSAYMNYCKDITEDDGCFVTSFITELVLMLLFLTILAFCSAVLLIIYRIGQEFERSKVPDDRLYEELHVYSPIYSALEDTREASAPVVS
T1 sequence (P20411 19-86 partner): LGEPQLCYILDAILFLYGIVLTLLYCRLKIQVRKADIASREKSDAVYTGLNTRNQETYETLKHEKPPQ
Experimental: The test used to determine this activity was the method of S. M. Coutts et al. (Journal of Pharm. Sci., 68:353 (1979)). Briefly described, the method is as follows:
IgE, isolated from the ascitic fluid of a transplantable rat IgE immunocytoma, was labeled with iodine-125 under mild conditions employing the Bolton-Hunter reagent. The antibody was incubated with mixed peritoneal cells at 37° C., and the cell-bound IgE was separated from unbound label by sedimentation through an 8% sucrose-polymer solution in microsediment tubes. Conditions for the interaction of 3nM IgE with 3×10^5 mast cells in 150 μl were: incubation time, 2 hrs; pH, 6.5-7.0; and ionic strength, equivalent to 150 mM NaCl. Mixed peritoneal cells bind IgE with an affinity equal to that of purified mast cells.

human basophils = experiment: Inhibition of histamine release from human basophils; type: cell-based; settings: 5 minutes preincubation before anti-human IgE challenge; read-out: calculated concentration at which 50% of anti-IgE-induced histamine release was inhibited
Experimental: 1H-benz(f)azepine-2,5-dione was also tested by a method which measures inhibition of histamine release from human basophils. The basophil is a circulating granulocyte that contains preformed mediators of anaphylaxis. These mediators are secreted after immunological stimulation of the IgE-Fc receptor system. The human basophil has thus been employed as a model cell system for asthma and allergy. The effect of the compound upon anti-IgE-medicated secretion of histamine from human basophils prepared from venous blood was carried out according to Siraganian, R. and Brodsky, M. J., Automated Histamine Analysis for in vitro testing, J. Allergy Clin. Immunol. 57:525-540 (1976). The summary of the method follows:
A fraction containing basophils was isolated by allowing freshly drawn human blood to sediment in the presence of dextran, saline and ethylenediamine tetraacetate. […] Both the histamine secreted after the challenge and that remaining in the cells were determined by an automated fluorometric assay. The influence of 1H-benz(f)azepine-2,5-dione on anti-IgE-induced release of histamine (AIR) was assessed by preincubation of the cells with the test compound for 5 minutes before immunological challenge. […] The results were expressed as the percent inhibition of AIR or as I50 value.

[3] = 0 h, compound added simultaneously (at 0 minutes) with antigen
[4] = cells and drug preincubated for 5 minutes before adding antigen

| IC50 [1, 3] [µM] | IC50 [1, 4] [µM] | IC50 ([2]; 3 nM IgE, 3×10^5 mast cells, 2 hrs, 37° C., read-out: concentration at which 50% inhibition of IgE binding was observed (I50)) [µM] | inhibition at 30 µM ([2]; 30 μM, average of two experiments) [%] | apparent affinity constant KA of IgE for its cellular receptor ([2]; in presence of 30 μM test compound, control KA 4.4×10^8 M^-1, Scatchard analysis) [M⁻¹] | IC50 (human basophils) [µM] | SMILES | IC50 (guinea pig lung slices) [µM] | I50 of antigen-induced secretion of histamine [1, 4] |
| --- | --- | --- | --- | --- | --- | --- | --- | --- |
| 1.8 | 5 | 12 | 70 | 9.4e+07 | 2 | O=c1ccc(=O)c2ccccc2[nH]1 [1H-benz(f)azepine-2,5-dione, 1H-Benz(f)azepine-2,5-dione] | 20 | – |
| 3 | – | – | – | – | – | O=C(O)c1cc(=O)c2c(OCC(O)COc3cccc4oc(C(=O)O)cc(=O)c34)cccc2o1 [disodium cromoglycate, reference compound] | – | inactive |

Reference: patent publication US4477446A, “1-Benzazepines and their pharmaceutical uses” (USV Pharmaceutical Corporation, priority 1983, dated 1984)
